In publication PMC9933715 (Antimicrobial Agents and Chemotherapy, 2023):

Experiments:
[1] = tested on: ZIKV-R2A (strain FSS13025); assay: microbe, parasite or virus in culture; format: cell-based; conditions: Zika virus, Huh7.5, 48 h, read-out: ZIKV-R2A replication (fold DMSO) Mean
[2] = tested on: DENV-R2A (Rluc-expressing DENV, serotype 2 strain 16681); assay: microbe, parasite or virus in culture; format: cell-based, Dengue virus; conditions: Dengue virus, Huh7.5, 48 h, read-out: DENV-R2A replication (fold DMSO) Mean, deconvolution screen, singletons, 50 µM, Huh7.5, 2 days postinfection
Huh7.5 cells = assay: Cell viability, CellTiter-Glo luminescent assay; conditions: deconvolution screen, singletons, 50 µM, uninfected Huh7.5

| SMILES | activity at 50 µM [1] | activity at 50 µM [2] | Cell viability (fold DMSO) Mean (Huh7.5 cells) |
| --- | --- | --- | --- |
| O=C1CCNc2c(F)cccc21 [PS-6636, Fc1cccc2C(=O)CCNc12] | 86% | 87% | 1.14 fold DMSO |
| N#CCOc1cccc2ccccc12 [MS-7107, N#CCOc1cccc2ccccc12] | 84% | 65% | 1.01 fold DMSO |
| Cc1ccnc2ccccc12 [PS-3771, Cc1ccnc2ccccc12] | 107% | 101% | 0.92 fold DMSO |
| COC(=O)[C@H]1CCC(=O)N1 [AS-7023, COC(=O)[C@H]1CCC(=O)N1] | 103% | 102% | 1.19 fold DMSO |
| NC(=O)NCc1cccc(Cl)c1 [Compound 9M-050, NC(=O)NCc1cccc(Cl)c1] | 110% | 100% | 1.27 fold DMSO |
| CC(N)c1cccnc1 (stereo not drawn) [PS-3055, CC(N)c1cccnc1] | 111% | 100% | 0.98 fold DMSO |
| CNC(=O)Nc1ccc(F)c(C)c1 [MS-0046, CNC(=O)Nc1ccc(F)c(C)c1] | 97% | 96% | 1.00 fold DMSO |
| Cc1cc2c(cc1C)NC(C)CC(=O)N2 (stereo not drawn) [Compound 12W-0869, CC1CC(=O)Nc2cc(C)c(C)cc2N1] | 97% | 85% | 1.09 fold DMSO |
| Cc1onc(-c2ccccc2)c1C#N [Compound 10B-058, Cc1onc(c2ccccc2)c1C#N] | 106% | 102% | 0.98 fold DMSO |
| Nc1cnc(Cl)cn1 [PS-5654, Nc1cnc(Cl)cn1] | 117% | 97% | 1.12 fold DMSO |
| Nc1cncnc1 [SS-6051, Nc1cncnc1] | 105% | 104% | 0.96 fold DMSO |
| O=C(O)C(O)c1cc(F)cc(F)c1 (stereo not drawn) [PS-6482, OC(C(=O)O)c1cc(F)cc(F)c1] | 110% | 101% | 1.08 fold DMSO |
| NC(=O)c1ccco1 [Compound 2B-052, NC(=O)c1occc1] | 112% | 98% | 1.17 fold DMSO |
| CN1C(=O)Cc2ccccc2C1=O [Compound 10L-733, CN1C(=O)Cc2ccccc2C1=O] | 114% | 101% | 0.94 fold DMSO |
| Nc1cccnc1Cl [PS-5762, Nc1cccnc1Cl] | 109% | 106% | 1.10 fold DMSO |
| Cc1cccc(N2CCNCC2)n1 [FS-1568, Cc1cccc(n1)N2CCNCC2] | 102% | 91% | 1.22 fold DMSO |
| CN(C)C(=O)c1ccccc1Br [PS-4942, CN(C)C(=O)c1ccccc1Br] | 112% | 107% | 1.07 fold DMSO |
| OCc1cc2c(cc1Br)OCO2 [Compound 10P-113, OCc1cc2OCOc2cc1Br] | 103% | 86% | 0.88 fold DMSO |
| Cc1onc(-c2ccccc2)c1CN [PS-4242, Cc1onc(c1CN)c2ccccc2] | 103% | 91% | 0.92 fold DMSO |
| CC1CCN(Cc2ccc(Cl)nc2)CC1 [Compound 2X-0836, CC1CCN(Cc2ccc(Cl)nc2)CC1] | 104% | 89% | 1.16 fold DMSO |
| O=C(c1ccccc1)C1(O)CCCCC1 [FS-3226, OC1(CCCCC1)C(=O)c2ccccc2] | 109% | 96% | 1.07 fold DMSO |
| Brc1cnc(N2CCCC2)nc1 [PS-6092, Brc1cnc(nc1)N2CCCC2] | 103% | 105% | 1.11 fold DMSO |
